Measurements from patent US11053235B2, “Substituted 1,4-dihydropyrimidines for the treatment of HBV infection or HBV-induced diseases” (Janssen Sciences Ireland Unlimited Company, priority 2018, dated 2021).
Like-named read-outs stand apart in the source and are kept apart here.

How the values were obtained:
HBV = assay: Anti-viral assay in HepG2.2.15 cells: HBV inhibitory activity (HBV DNA in culture medium by q-PCR); assay type: cell-based; conditions: HepG2.2.15 cells, 6 days treatment, HBV DNA in culture medium by q-PCR, highest concentration 10 uM, read-out: EC50
Excerpt: (§1) Example 2: Anti-Viral Assay in HepG2.2.15 Cells
(§2) 1.1. Cell Line • HepG2.2.15 (the HepG2.2.15 cell line can be produced by transfection of the HepG2 cell line as described in Sells, Chen, and Acs 1987 (Proc. Natl. Acad. Sci. USA 84:1005-1009), and the HepG2 cell line is available from ATCC® under number HB-8065™). Reagents • DMEM/F12 (INVITROGEN-11330032) • FBS (GIBCO-10099-141) • Dimethyl sulfoxide(DMSO) (SIGMA-D2650) • Penicillin-streptomycin solution (HYCLONE-SV30010) • NEAA (INVITROGEN-1114050) • L-Glutamine (INVITROGEN-25030081) • Geneticin Selective Antibiotic (G418, 500 mg/ml) (INVITROGEN-10131027) • Trypsinase digestion solution (INVITROGEN-25300062) • CCK8 (BIOLOTE-35004) • QIAamp 96 DNA Blood Kit (12) (QIAGEN-51162) • FastStart Universal Probe Mast Mix (ROCHE-04914058001)
(§3) 2.1. HBV Inhibitory Activity and Cytotoxicity Determination
(§4) Seed the cell HepG2.2.15 cells into 96-well plate in 2% FBS culture medium at the density of 40,000 cells/well and 5,000 cells/well for HBV inhibitory activity and cytotoxicity determination, respectively. After seeding, incubate the cell plates at 37° C., 5% CO2 overnight. The next day, medium containing compounds is added to the cell to treat the cells for 6 days with medium refreshed once in the middle of the treatment. 8 dose points with 3 folds dilution of each compound were adopted and the highest concentration of the compounds is 10 uM and 100 uM for HBV inhibitory activity and cytotoxicity determination, respectively.
The HBV DAN change in the cell culture medium induced by the compounds is measured by q-PCR method. Briefly, the HBV DNA in the culture medium is extracted using QIAamp 96 DNA Blood Kit according to the manual and then quantified by q-PCR using the primers and probe in the table below.
(§5) EC50 and CC50 values are calculated by the GRAPHPAD PRISM software.

[1] = Cytotoxicity determination in HepG2.2.15 cells (CCK-8); assay type: cell-based; conditions: human, 6 days treatment, CCK-8, highest concentration 100 uM
Excerpt: as §1, §2, §3, §4
After 6 days of compounds treatment, add 20 μl CCK-8 reagents to each well of cytotoxicity assay plates, incubate the plate at 37° C., 5% CO2 for 2.5 h and measure the absorbance at 450 nm wavelength, at the same time read the absorbance at 630 nm wavelength as reference.
as §5

[2] = Hepatitis B virus, HepG2.2.15, 144 h

Structure (SMILES)	EC50 (HBV; [2]) [nM]	CC50 at 6 days [1] [nM]	EC50 (HBV) [nM]
CCOC(=O)C1=C([C@H]2CC[C@H](c3nc(CCC(=O)O)co3)CC2)NC(c2nccs2)=NC1c1ccc(F)c(F)c1Cl (relative stereo) [Compound I-24, (trans)-3-(2-(4-(6-(2-Chloro-3,4-difluorophenyl)-5-(ethoxycarbonyl)-2-(thiazol-2-yl)-3,6-dihydropyrimidin-4-yl)cyclohexyl)oxazol-4-yl)propanoic acid]	12	7550	–
COC(=O)C1=C([C@H]2CC[C@H](c3nc(C(=O)O)co3)CC2)NC(c2nccs2)=NC1c1ccc(F)c(F)c1Cl (single isomer, unassigned) [Compound I-1-C, (trans)-2-(4-(6-(2-Chloro-3,4-difluorophenyl)-5-(methoxycarbonyl)-2-(thiazol-2-yl)-3,6-dihydropyrimidin-4-yl)cyclohexyl)oxazole-4-carboxylic Acid]	7.5	13600	–
CCOC(=O)C1=C([C@H]2CC[C@H](c3nc(C(=O)O)co3)CC2)NC(c2nccs2)=NC1c1ccc(F)c(F)c1Cl (single isomer, unassigned) [Compound I-2-D, (trans)-2-(4-(6-(2-Chloro-3,4-difluorophenyl)-5-(ethoxycarbonyl)-2-(thiazol-2-yl)-3,6-dihydropyrimidin-4-yl)cyclohexyl)oxazole-4-carboxylic Acid]	6	9370	–
COC(=O)C1=C([C@H]2CC[C@H](c3nc(C(=O)O)co3)CC2)NC(c2nccs2)=NC1c1cccc(F)c1C (single isomer, unassigned) [Compound I-3-D, trans-2-(4-(6-(3-Fluoro-2-methylphenyl)-5-(methoxycarbonyl)-2-(thiazol-2-yl)-3,6-dihydropyrimidin-4-yl)cyclohexyl)oxazole-4-carboxylic Acid]	140	14200	–
COC(=O)C1=C([C@H]2CC[C@H](c3nc(C(=O)O)co3)CC2)NC(c2nccs2)=NC1c1ccc(F)cc1Cl (single isomer, unassigned) [Compound I-4-B, (trans)-2-(4-(6-(2-Chloro-4-fluorophenyl)-5-(methoxycarbonyl)-2-(thiazol-2-yl)-3,6-dihydropyrimidin-4-yl)cyclohexyl)oxazole-4-carboxylic Acid]	11	16400	–
COC(=O)C1=C([C@H]2CC[C@H](c3nc(C(=O)O)co3)CC2)NC(c2nccs2)=NC1c1cccc(F)c1Cl (single isomer, unassigned) [Compound I-5-B, (trans)-2-(4-(6-(2-Chloro-3-fluorophenyl)-5-(methoxycarbonyl)-2-(thiazol-2-yl)-3,6-dihydropyrimidin-4-yl)cyclohexyl)oxazole-4-carboxylic Acid]	60	19300	–
COC(=O)C1=C([C@H]2CC[C@H](c3nc(C(=O)O)co3)CC2)NC(c2nccs2)=NC1c1ccc(F)cc1C (single isomer, unassigned) [Compound I-6-B, (trans)-2-(4-(6-(4-Fluoro-2-methylphenyl)-5-(methoxycarbonyl)-2-(thiazol-2-yl)-3,6-dihydropyrimidin-4-yl)cyclohexyl)oxazole-4-carboxylic Acid]	72	17400	–
COC(=O)C1=C([C@H]2CC[C@H](c3nc(C(=O)O)co3)CC2)NC(c2ncc(F)cc2F)=NC1c1ccc(F)c(F)c1Cl (single isomer, unassigned) [Compound I-7-B, (trans)-2-(4-(6-(2-chloro-3,4-difluorophenyl)-2-(3,5-difluoropyridin-2-yl)-5-(methoxycarbonyl)-3,6-dihydropyrimidin-4-yl)cyclohexyl)oxazole-4-carboxylic acid]	24	14300	–
COC(=O)C1=C(C23CC(c4nc(C(=O)O)co4)(C2)C3)NC(c2nccs2)=NC1c1ccc(F)c(F)c1Cl (single isomer, unassigned) [Compound I-8-B, 2-(3-(6-(2-Chloro-3,4-difluorophenyl)-5-(methoxycarbonyl)-2-(thiazol-2-yl)-3,6-dihydropyrimidin-4-yl)bicyclo[1.1.1]pentan-1-yl)oxazole-4-carboxylic Acid]	51	26600	–
CCOC(=O)C1=C([C@H]2CC[C@H](c3nc(C(=O)O)co3)CC2)NC(c2nccs2)=NC1c1cccc(F)c1Cl (single isomer, unassigned) [Compound I-9-B, (trans)-2-(4-(6-(2-chloro-3-fluorophenyl)-5-(ethoxycarbonyl)-2-(thiazol-2-yl)-3,6-dihydropyrimidin-4-yl)cyclohexyl)oxazole-4-carboxylic Acid]	25	12300	–
CCOC(=O)C1=C([C@H]2CC[C@H](c3nc(C(=O)O)co3)CC2)NC(c2nccs2)=NC1c1ccc(F)cc1Cl (single isomer, unassigned) [Compound I-10-C, (trans)-2-(4-(6-(2-Chloro-4-fluorophenyl)-5-(ethoxycarbonyl)-2-(thiazol-2-yl)-3,6-dihydropyrimidin-4-yl)cyclohexyl)oxazole-4-carboxylic Acid]	22	7640	–
CCOC(=O)C1=C([C@H]2CC[C@H](c3nc(C(=O)O)co3)CC2)NC(c2nccs2)=NC1c1cccc(F)c1C (single isomer, unassigned) [Compound I-11-B, (trans)-2-(4-(5-(Ethoxycarbonyl)-6-(3-fluoro-2-methylphenyl)-2-(thiazol-2-yl)-3,6-dihydropyrimidin-4-yl)cyclohexyl)oxazole-4-carboxylic Acid]	37	12100	–
CCOC(=O)C1=C([C@H]2CC[C@H](c3nc(C(=O)O)co3)CC2)NC(c2nccs2)=NC1c1ccc(F)cc1C (single isomer, unassigned) [Compound I-12-C, (trans)-2-(4-(5-(Ethoxycarbonyl)-6-(4-fluoro-2-methylphenyl)-2-(thiazol-2-yl)-3,6-dihydropyrimidin-4-yl)cyclohexyl)oxazole-4-carboxylic Acid]	36	11100	–
CCOC(=O)C1=C(C2CC=C(c3nc(C(=O)O)co3)CC2)NC(c2nccs2)=NC1c1ccc(F)c(F)c1Cl (single isomer, unassigned) [Compound I-13-C, 2-(4-(6-(2-chloro-3,4-difluorophenyl)-5-(ethoxycarbonyl)-2-(thiazol-2-yl)-3,6-dihydropyrimidin-4-yl)cyclohex-1-en-1-yl)oxazole-4-carboxylic Acid]	–	5610	6.5
CCOC(=O)C1=C([C@H]2CC[C@H](c3nc(C(=O)O)c(C)o3)CC2)NC(c2nccs2)=NC1c1ccc(F)c(F)c1Cl (single isomer, unassigned) [Compound I-14-B, (trans)-2-(4-(6-(2-Chloro-3,4-difluorophenyl)-5-(ethoxycarbonyl)-2-(thiazol-2-yl)-3,6-dihydropyrimidin-4-yl)cyclohexyl)-5-methyloxazole-4-carboxylic Acid]	4.7	3720	–
CCOC(=O)C1=C([C@H]2CC[C@H](Cc3nc(C(=O)O)co3)CC2)NC(c2nccs2)=NC1c1ccc(F)c(F)c1Cl (single isomer, unassigned) [Compound I-15-A, (trans)-2-((4-(6-(2-chloro-3,4-difluorophenyl)-5-(ethoxycarbonyl)-2-(thiazol-2-yl)-3,6-dihydropyrimidin-4-yl)cyclohexyl)methyl)oxazole-4-carboxylic Acid]	66	6270	–
COC(=O)C1=C([C@H]2CC[C@H](c3nc(CC(=O)O)co3)CC2)NC(c2nccs2)=NC1c1ccc(F)c(F)c1Cl (single isomer, unassigned) [Compound I-16-B, (trans)-2-(2-(4-(6-(2-Chloro-3,4-difluorophenyl)-5-(methoxycarbonyl)-2-(thiazol-2-yl)-3,6-dihydropyrimidin-4-yl)cyclohexyl)oxazol-4-yl)acetic Acid]	4.8	12400	–
CCOC(=O)Cc1coc([C@H]2CC[C@H](C3=C(C(=O)OCC)C(c4ccc(F)c(F)c4Cl)N=C(c4nccs4)N3)CC2)n1 (single isomer, unassigned) [VII-23-Y, (trans)-Ethyl 4-(2-chloro-3,4-difluorophenyl)-(4-(4-(2-ethoxy-2-oxoethyl)oxazol-2-yl)cyclohexyl)-2-(thiazol-2-yl)-1,4-dihydropyrimidine-5-carboxylate]	23	–	–
